In ChEMBL document CHEMBL1201862, “PubChem BioAssay data set” (2004):
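Compound exposure: 48 hours, 5 concentrations, 96-well plates. GI50 marks 50% less growth.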 The source made the active and inactive calls. No stated cut-off is given here; in the data, active = GI50 up to about 1.1 µM and inactive = higher.

Assays:
Experiment in all cases: NCI tumour cell line growth inhibition, 48 h
CCRF-CEM = test system: CCRF-CEM
NCI-H226 = test system: NCI-H226
786-0 = test system: 786-0
SK-MEL-28 = test system: SK-MEL-28
SK-MEL-5 = test system: SK-MEL-5
LOX IMVI = test system: LOX IMVI
SN12C = test system: SN12C
XF498 = test system: XF498
Malme-3M = test system: Malme-3M
EKVX = test system: EKVX
SK-OV-3 = test system: SK-OV-3
UO-31 = test system: UO-31
DU-145 = test system: DU-145
BT-549 = test system: BT-549
HOP-92 = test system: HOP-92
OVCAR-8 = test system: OVCAR-8
HL-60 = test system: HL-60
IGROV-1 = test system: IGROV-1
A498 = test system: A498
OVCAR-3 = test system: OVCAR-3
Hs-578T = test system: Hs-578T
MDA-MB-435 = test system: MDA-MB-435
UACC-62 = test system: UACC-62
SF-268 = test system: SF-268
SW-620 = test system: SW-620
U-251 = test system: U-251
M14 = test system: M14
HT-29 = test system: HT-29
TK-10 = test system: TK-10
LXFL 529 = test system: LXFL 529
CAKI-1 = test system: CAKI-1
HCT-15 = test system: HCT-15
MCF7 = test system: MCF7
DMS-114 = test system: DMS-114
SNB-19 = test system: SNB-19
K562 = test system: K562
HOP-62 = test system: HOP-62
NCI-H522 = test system: NCI-H522
SF-539 = test system: SF-539
RPMI-8226 = test system: RPMI-8226
KM-20L2 = test system: KM-20L2
HOP-18 = test system: HOP-18
UACC-257 = test system: UACC-257
OVCAR-5 = test system: OVCAR-5
HCC 2998 = test system: HCC 2998
SNB-75 = test system: SNB-75
M19-MEL = test system: M19-MEL
COLO 205 = test system: COLO 205
NCI-H23 = test system: NCI-H23
MOLT-4 = test system: MOLT-4
HCT-116 = test system: HCT-116
OVCAR-4 = test system: OVCAR-4
DMS-273 = test system: DMS-273
ACHN = test system: ACHN
NCI-H460 = test system: NCI-H460
SNB-78 = test system: SNB-78
A549 = test system: A549
DLD-1 = test system: DLD-1
KM12 = test system: KM12
SK-MEL-2 = test system: SK-MEL-2
T47D = test system: T47D
SF-295 = test system: SF-295
SR = test system: SR
RXF 631 = test system: RXF 631

For `O=C(O)COc1ccc(C(=O)/C(SS/C(C(=O)c2ccc(OCC(=O)O)c(Cl)c2Cl)=C2\C=C(c3ccc(Br)cc3)SS2)=C2/C=C(c3ccc(Br)cc3)SS2)c(Cl)c1Cl`, which GI50 (CCRF-CEM) is on record?
The GI50 was 3.21 µM (inactive).

And the GI50 (NCI-H226)?
The GI50 was 6.81 µM (inactive).

And the GI50 (786-0)?
The GI50 was 3.87 µM (inactive).

What about the GI50 (SK-MEL-28) of the same compound?
Its GI50 is 24.8 µM (inactive).

What about the GI50 (SK-MEL-5) of the same compound?
Its GI50 is 11.9 µM (inactive).

And the GI50 (LOX IMVI)?
Its GI50 is 2.69 µM (inactive).

What about the GI50 (SN12C) of the same compound?
Its GI50 is 6.32 µM (inactive).

And the GI50 (XF498)?
The GI50 was 3.19 µM (inactive).

And the GI50 (Malme-3M)?
Its GI50 is 11.5 µM (inactive).

What about the GI50 (EKVX) of the same compound?
The GI50 was 28 µM (inactive).

And the GI50 (SK-OV-3)?
Its GI50 is 21.3 µM (inactive).

What about the GI50 (UO-31) of the same compound?
The GI50 was 4.32 µM (inactive).

What about the GI50 (DU-145) of the same compound?
The GI50 was 16.8 µM (inactive).

What about the GI50 (BT-549) of the same compound?
Its GI50 is 8.13 µM (inactive).

And the GI50 (HOP-92)?
Its GI50 is 3.5 µM (inactive).

What about the GI50 (OVCAR-8) of the same compound?
The GI50 was 5.16 µM (inactive).

What about the GI50 (HL-60) of the same compound?
The GI50 was 1.55 µM (inactive).

And the GI50 (IGROV-1)?
The GI50 was 4.99 µM (inactive).

What about the GI50 (A498) of the same compound?
The GI50 was 18.2 µM (inactive).

And the GI50 (OVCAR-3)?
The GI50 was 3.73 µM (inactive).

What about the GI50 (Hs-578T) of the same compound?
The GI50 was 3.57 µM (inactive).

And the GI50 (MDA-MB-435)?
Its GI50 is 30.3 µM (inactive).

And the GI50 (UACC-62)?
The GI50 was 4.55 µM (inactive).

And the GI50 (SF-268)?
Its GI50 is 2.82 µM (inactive).

And the GI50 (SW-620)?
The GI50 was 6.73 µM (inactive).

What about the GI50 (U-251) of the same compound?
The GI50 was 3.47 µM (inactive).

And the GI50 (M14)?
Its GI50 is 11.1 µM (inactive).

And the GI50 (HT-29)?
Its GI50 is 12.2 µM (inactive).

What about the GI50 (TK-10) of the same compound?
Its GI50 is 26.7 µM (inactive).

And the GI50 (LXFL 529)?
Its GI50 is 1.29 µM (inactive).

And the GI50 (CAKI-1)?
The GI50 was 13.6 µM (inactive).

What about the GI50 (HCT-15) of the same compound?
Its GI50 is 4.92 µM.

What about the GI50 (MCF7) of the same compound?
Its GI50 is 0.0513 µM (active).

What about the GI50 (DMS-114) of the same compound?
Its GI50 is 1.05 µM (active).

And the GI50 (SNB-19)?
The GI50 was 5.55 µM (inactive).

What about the GI50 (K562) of the same compound?
Its GI50 is 2.92 µM (inactive).

What about the GI50 (HOP-62) of the same compound?
The GI50 was 12.9 µM (inactive).

What about the GI50 (NCI-H522) of the same compound?
Its GI50 is 0.798 µM (active).

What about the GI50 (SF-539) of the same compound?
Its GI50 is 4.3 µM (inactive).

And the GI50 (RPMI-8226)?
Its GI50 is 4.73 µM (inactive).

And the GI50 (KM-20L2)?
The GI50 was 39.6 µM (inactive).

What about the GI50 (HOP-18) of the same compound?
Its GI50 is 5.48 µM (inactive).

What about the GI50 (UACC-257) of the same compound?
The GI50 was 25.3 µM (inactive).

And the GI50 (OVCAR-5)?
Its GI50 is 24.8 µM (inactive).

What about the GI50 (HCC 2998) of the same compound?
The GI50 was 10.2 µM (inactive).

And the GI50 (SNB-75)?
Its GI50 is 7.5 µM (inactive).

And the GI50 (M19-MEL)?
The GI50 was 5.45 µM (inactive).

And the GI50 (COLO 205)?
Its GI50 is 3.11 µM (inactive).

What about the GI50 (NCI-H23) of the same compound?
Its GI50 is 4.62 µM (inactive).

What about the GI50 (MOLT-4) of the same compound?
Its GI50 is 3.44 µM (inactive).

And the GI50 (HCT-116)?
Its GI50 is 3.9 µM (inactive).

What about the GI50 (OVCAR-4) of the same compound?
The GI50 was 4.51 µM (inactive).

What about the GI50 (DMS-273) of the same compound?
Its GI50 is 23.8 µM (inactive).

What about the GI50 (ACHN) of the same compound?
The GI50 was 4.58 µM (inactive).

What about the GI50 (NCI-H460) of the same compound?
The GI50 was 19.3 µM (inactive).

What about the GI50 (SNB-78) of the same compound?
Its GI50 is 4.57 µM (inactive).

And the GI50 (A549)?
Its GI50 is 33.9 µM (inactive).

And the GI50 (DLD-1)?
The GI50 was 6.14 µM (inactive).

What about the GI50 (KM12) of the same compound?
Its GI50 is 8.13 µM (inactive).

What about the GI50 (SK-MEL-2) of the same compound?
Its GI50 is 6.61 µM (inactive).

And the GI50 (T47D)?
The GI50 was 2.3 µM (inactive).

And the GI50 (SF-295)?
Its GI50 is 5.58 µM (inactive).

`COc1cc([C@@H]2Oc3cc4oc(-c5ccccc5)cc(=O)c4c(O)c3O[C@H]2OC)ccc1O` was tested. Which GI50 (CCRF-CEM) did it give?
Its GI50 is 3.7 µM (inactive).

What about the GI50 (NCI-H226) of the same compound?
Its GI50 is 19.3 µM (inactive).

And the GI50 (786-0)?
Its GI50 is 8.2 µM (inactive).

And the GI50 (SK-MEL-28)?
Its GI50 is 4.69 µM (inactive).

And the GI50 (SN12C)?
Its GI50 is 12.1 µM (inactive).

What about the GI50 (Malme-3M) of the same compound?
Its GI50 is 14.3 µM (inactive).

What about the GI50 (SK-OV-3) of the same compound?
Its GI50 is 17.8 µM (inactive).

What about the GI50 (HOP-92) of the same compound?
Its GI50 is 23.6 µM (inactive).

What about the GI50 (HL-60) of the same compound?
The GI50 was 2.85 µM (inactive).

And the GI50 (IGROV-1)?
Its GI50 is 22.4 µM (inactive).

What about the GI50 (A498) of the same compound?
The GI50 was 14.3 µM (inactive).

What about the GI50 (UACC-62) of the same compound?
The GI50 was 15 µM (inactive).

And the GI50 (SF-268)?
The GI50 was 6.03 µM (inactive).

What about the GI50 (M14) of the same compound?
The GI50 was 11 µM (inactive).

And the GI50 (LXFL 529)?
The GI50 was 11.1 µM (inactive).

What about the GI50 (CAKI-1) of the same compound?
The GI50 was 19.4 µM (inactive).

What about the GI50 (SR) of the same compound?
The GI50 was 4.14 µM (inactive).

What about the GI50 (K562) of the same compound?
The GI50 was 5.71 µM (inactive).

And the GI50 (HOP-62)?
Its GI50 is 13.2 µM (inactive).

And the GI50 (NCI-H522)?
Its GI50 is 5.97 µM (inactive).

What about the GI50 (SF-539) of the same compound?
Its GI50 is 15 µM (inactive).

What about the GI50 (RPMI-8226) of the same compound?
The GI50 was 5.71 µM (inactive).

And the GI50 (HCC 2998)?
Its GI50 is 13.2 µM (inactive).

And the GI50 (SNB-75)?
Its GI50 is 12.4 µM (inactive).

What about the GI50 (M19-MEL) of the same compound?
Its GI50 is 7.4 µM (inactive).

What about the GI50 (COLO 205) of the same compound?
The GI50 was 20.5 µM (inactive).

And the GI50 (NCI-H23)?
The GI50 was 10.8 µM (inactive).

What about the GI50 (MOLT-4) of the same compound?
Its GI50 is 4.91 µM (inactive).

And the GI50 (HCT-116)?
Its GI50 is 7.16 µM (inactive).

What about the GI50 (OVCAR-4) of the same compound?
The GI50 was 14.6 µM (inactive).

What about the GI50 (DMS-273) of the same compound?
Its GI50 is 4.03 µM (inactive).

What about the GI50 (ACHN) of the same compound?
The GI50 was 11 µM (inactive).

And the GI50 (NCI-H460)?
The GI50 was 4.48 µM (inactive).

What about the GI50 (RXF 631) of the same compound?
The GI50 was 17.8 µM (inactive).

What about the GI50 (SNB-78) of the same compound?
Its GI50 is 18.2 µM (inactive).

And the GI50 (DLD-1)?
Its GI50 is 7.69 µM (inactive).

What about the GI50 (SK-MEL-2) of the same compound?
The GI50 was 14.8 µM (inactive).
